Results from patent US8192962B2, “Processes for detecting toxic substances” (Daikin Industries, Ltd., priority 2001, dated 2012).

System: Transport facilitation protein genes
Assay: DNA chip mRNA expression in yeast, transport facilitation protein genes (Table 5)
Type: cell-based, Saccharomyces cerevisiae S288C
Method in brief: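 Whole-genome yeast DNA chip hybridization (65° C., >12 h) of Cy-labeled cDNA from S288C cells exposed 2 h at 25° C. to a sub-lethal toxicant dose in YPD; value is intensity relative to chemical-free control.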

Structure (SMILES): N#Cc1c(Cl)c(Cl)c(Cl)c(C#N)c1Cl [(9), 2,4,5,6-tetrachloro-1,3-benzenedicarbonitrile]
- The level of expressed mRNA in the presence of chemical substance/The level of expressed mRNA in the absence of chemical substance (yeast gene YBL030C): 0.4
- The level of expressed mRNA in the presence of chemical substance/The level of expressed mRNA in the absence of chemical substance (yeast gene YBL099W): 0.9
- The level of expressed mRNA in the presence of chemical substance/The level of expressed mRNA in the absence of chemical substance (yeast gene YBR052C): 2.3
- The level of expressed mRNA in the presence of chemical substance/The level of expressed mRNA in the absence of chemical substance (yeast gene YBR068C): 0.8
- The level of expressed mRNA in the presence of chemical substance/The level of expressed mRNA in the absence of chemical substance (yeast gene YBR127C): 0.6
- The level of expressed mRNA in the presence of chemical substance/The level of expressed mRNA in the absence of chemical substance (yeast gene YBR132C): 0.8
- The level of expressed mRNA in the presence of chemical substance/The level of expressed mRNA in the absence of chemical substance (yeast gene YBR207W): 1.7
- The level of expressed mRNA in the presence of chemical substance/The level of expressed mRNA in the absence of chemical substance (yeast gene YBR293W): 5.5
- The level of expressed mRNA in the presence of chemical substance/The level of expressed mRNA in the absence of chemical substance (yeast gene YBR294W): 5.2
- The level of expressed mRNA in the presence of chemical substance/The level of expressed mRNA in the absence of chemical substance (yeast gene YBR295W): 1.2
- The level of expressed mRNA in the presence of chemical substance/The level of expressed mRNA in the absence of chemical substance (yeast gene YBR298C): 0.3
- The level of expressed mRNA in the presence of chemical substance/The level of expressed mRNA in the absence of chemical substance (yeast gene YCL025C): 0.3
- The level of expressed mRNA in the presence of chemical substance/The level of expressed mRNA in the absence of chemical substance (yeast gene YCL038C): 1.1
- The level of expressed mRNA in the presence of chemical substance/The level of expressed mRNA in the absence of chemical substance (yeast gene YCR024C-A): 0.2
- The level of expressed mRNA in the presence of chemical substance/The level of expressed mRNA in the absence of chemical substance (yeast gene YCR037C): 0.6
- The level of expressed mRNA in the presence of chemical substance/The level of expressed mRNA in the absence of chemical substance (yeast gene YCR098C): 1.4
- The level of expressed mRNA in the presence of chemical substance/The level of expressed mRNA in the absence of chemical substance (yeast gene YDL128W): 0.5
- The level of expressed mRNA in the presence of chemical substance/The level of expressed mRNA in the absence of chemical substance (yeast gene YDL198C): 1.9
- The level of expressed mRNA in the presence of chemical substance/The level of expressed mRNA in the absence of chemical substance (yeast gene YDL210W): 1.2
- The level of expressed mRNA in the presence of chemical substance/The level of expressed mRNA in the absence of chemical substance (yeast gene YDL245C): 0.4
- The level of expressed mRNA in the presence of chemical substance/The level of expressed mRNA in the absence of chemical substance (yeast gene YDR038C): 1.4
- The level of expressed mRNA in the presence of chemical substance/The level of expressed mRNA in the absence of chemical substance (yeast gene YDR039C): 1.8
- The level of expressed mRNA in the presence of chemical substance/The level of expressed mRNA in the absence of chemical substance (yeast gene YDR086C): 0.6
- The level of expressed mRNA in the presence of chemical substance/The level of expressed mRNA in the absence of chemical substance (yeast gene YDR270W): 2.9
- The level of expressed mRNA in the presence of chemical substance/The level of expressed mRNA in the absence of chemical substance (yeast gene YDR298C): 1.0
- The level of expressed mRNA in the presence of chemical substance/The level of expressed mRNA in the absence of chemical substance (yeast gene YDR342C): 0.2
- The level of expressed mRNA in the presence of chemical substance/The level of expressed mRNA in the absence of chemical substance (yeast gene YDR343C): 0.3
- The level of expressed mRNA in the presence of chemical substance/The level of expressed mRNA in the absence of chemical substance (yeast gene YDR345C): 0.2
- The level of expressed mRNA in the presence of chemical substance/The level of expressed mRNA in the absence of chemical substance (yeast gene YDR387C): 1.4
- The level of expressed mRNA in the presence of chemical substance/The level of expressed mRNA in the absence of chemical substance (yeast gene YDR497C): 0.4
- The level of expressed mRNA in the presence of chemical substance/The level of expressed mRNA in the absence of chemical substance (yeast gene YEL027W): 0.9
- The level of expressed mRNA in the presence of chemical substance/The level of expressed mRNA in the absence of chemical substance (yeast gene YEL063C): 0.8
- The level of expressed mRNA in the presence of chemical substance/The level of expressed mRNA in the absence of chemical substance (yeast gene YEL065W): 0.1
- The level of expressed mRNA in the presence of chemical substance/The level of expressed mRNA in the absence of chemical substance (yeast gene YER053C): 1.3
- The level of expressed mRNA in the presence of chemical substance/The level of expressed mRNA in the absence of chemical substance (yeast gene YFL011W): 0.3
- The level of expressed mRNA in the presence of chemical substance/The level of expressed mRNA in the absence of chemical substance (yeast gene YFL041W): 0.8
- The level of expressed mRNA in the presence of chemical substance/The level of expressed mRNA in the absence of chemical substance (yeast gene YFL050C): 0.5
- The level of expressed mRNA in the presence of chemical substance/The level of expressed mRNA in the absence of chemical substance (yeast gene YFL054C): 2.0
- The level of expressed mRNA in the presence of chemical substance/The level of expressed mRNA in the absence of chemical substance (yeast gene YGL006W): 3.0
- The level of expressed mRNA in the presence of chemical substance/The level of expressed mRNA in the absence of chemical substance (yeast gene YGL008C): 0.0
- The level of expressed mRNA in the presence of chemical substance/The level of expressed mRNA in the absence of chemical substance (yeast gene YGL104C): 4.6
- The level of expressed mRNA in the presence of chemical substance/The level of expressed mRNA in the absence of chemical substance (yeast gene YGL167C): 1.3
- The level of expressed mRNA in the presence of chemical substance/The level of expressed mRNA in the absence of chemical substance (yeast gene YGL255W): 0.3
- The level of expressed mRNA in the presence of chemical substance/The level of expressed mRNA in the absence of chemical substance (yeast gene YGR055W): 5.0
- The level of expressed mRNA in the presence of chemical substance/The level of expressed mRNA in the absence of chemical substance (yeast gene YGR065C): 1.2
- The level of expressed mRNA in the presence of chemical substance/The level of expressed mRNA in the absence of chemical substance (yeast gene YGR082W): 0.6
- The level of expressed mRNA in the presence of chemical substance/The level of expressed mRNA in the absence of chemical substance (yeast gene YGR096W): 0.8
- The level of expressed mRNA in the presence of chemical substance/The level of expressed mRNA in the absence of chemical substance (yeast gene YGR138C): 0.5
- The level of expressed mRNA in the presence of chemical substance/The level of expressed mRNA in the absence of chemical substance (yeast gene YGR191W): 0.1
- The level of expressed mRNA in the presence of chemical substance/The level of expressed mRNA in the absence of chemical substance (yeast gene YGR197C): 16.7
- The level of expressed mRNA in the presence of chemical substance/The level of expressed mRNA in the absence of chemical substance (yeast gene YGR224W): 0.9
